Test results from article PMC7422722, “The complete functional characterisation of the terpene synthase family in tomato” (The New Phytologist, 2020).

What was measured:
Assay type in all cases: biochemical
GGPPS1 = target: T1, GGPPS1 (Solanum lycopersicum, UniProt Q1A7T0); experiment: in vitro prenyltransferase assay, products hydrolysed, GC-MS; settings: co-substrate IPP; without SSU
T1 construct: gene GGPS1

GGPPS2 = target: T2, GGPPS2 (Solanum lycopersicum, UniProt Q1A7S9); experiment: as above; settings: co-substrate IPP; without SSU
T2 construct: gene GGPS2

TPS47 = target: T3, TPS47 (Solanum lycopersicum, UniProt K4BEJ5); experiment: in vitro assay, headspace SPME GC-MS; settings: product isoprene; 42 °C headspace collection
T3 construct: gene LOC101258440; recombinant, E. coli (codon-optimised gene made), His-tagged, purified; full length 562 residues; gene on chromosome 3
T3 sequence (K4BEJ5 1-562): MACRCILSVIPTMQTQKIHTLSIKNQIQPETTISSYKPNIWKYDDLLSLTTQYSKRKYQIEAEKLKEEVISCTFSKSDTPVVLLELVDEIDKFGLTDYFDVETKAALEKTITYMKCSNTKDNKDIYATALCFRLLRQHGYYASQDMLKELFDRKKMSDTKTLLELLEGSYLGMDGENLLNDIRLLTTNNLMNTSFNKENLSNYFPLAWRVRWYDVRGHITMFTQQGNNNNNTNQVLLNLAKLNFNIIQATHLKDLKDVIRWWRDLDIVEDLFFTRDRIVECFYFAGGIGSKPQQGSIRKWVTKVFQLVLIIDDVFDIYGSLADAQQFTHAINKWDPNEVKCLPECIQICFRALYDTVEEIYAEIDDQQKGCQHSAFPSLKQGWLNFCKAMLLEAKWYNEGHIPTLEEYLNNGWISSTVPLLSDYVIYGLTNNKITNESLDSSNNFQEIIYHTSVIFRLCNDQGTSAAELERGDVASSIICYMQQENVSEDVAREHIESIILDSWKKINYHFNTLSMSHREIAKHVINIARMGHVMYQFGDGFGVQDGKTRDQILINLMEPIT

TPS52 = target: T4, TPS52 (Solanum lycopersicum, UniProt A0A6H0JLZ2); experiment: in vitro assay, GC-MS of products
T4 construct: recombinant, E. coli (codon-optimised gene made), His-tagged, purified; full length 551 residues; gene on chromosome 7
T4 sequence (A0A6H0JLZ2 1-551): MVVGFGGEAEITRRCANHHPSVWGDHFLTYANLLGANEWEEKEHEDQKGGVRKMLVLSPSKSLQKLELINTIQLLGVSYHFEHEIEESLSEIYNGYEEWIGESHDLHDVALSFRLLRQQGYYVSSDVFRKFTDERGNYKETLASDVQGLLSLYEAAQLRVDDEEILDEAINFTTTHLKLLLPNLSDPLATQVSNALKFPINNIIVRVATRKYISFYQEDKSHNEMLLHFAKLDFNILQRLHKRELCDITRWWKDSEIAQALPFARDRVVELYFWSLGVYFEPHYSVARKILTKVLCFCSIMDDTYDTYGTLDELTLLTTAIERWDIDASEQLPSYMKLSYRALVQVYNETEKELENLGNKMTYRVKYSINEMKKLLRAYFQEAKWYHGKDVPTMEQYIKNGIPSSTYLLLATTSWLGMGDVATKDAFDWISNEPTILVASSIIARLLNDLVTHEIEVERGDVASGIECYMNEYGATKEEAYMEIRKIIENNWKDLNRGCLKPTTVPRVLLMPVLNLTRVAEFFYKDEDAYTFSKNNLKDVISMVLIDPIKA

TPS51 = target: T5, TPS51 (Solanum lycopersicum, UniProt A0A6H0JLJ2); experiment: in vitro assay, GC-MS of products
T5 construct: recombinant, E. coli (codon-optimised gene made), His-tagged, purified; full length 550 residues; gene on chromosome 7
T5 sequence (A0A6H0JLJ2 1-550): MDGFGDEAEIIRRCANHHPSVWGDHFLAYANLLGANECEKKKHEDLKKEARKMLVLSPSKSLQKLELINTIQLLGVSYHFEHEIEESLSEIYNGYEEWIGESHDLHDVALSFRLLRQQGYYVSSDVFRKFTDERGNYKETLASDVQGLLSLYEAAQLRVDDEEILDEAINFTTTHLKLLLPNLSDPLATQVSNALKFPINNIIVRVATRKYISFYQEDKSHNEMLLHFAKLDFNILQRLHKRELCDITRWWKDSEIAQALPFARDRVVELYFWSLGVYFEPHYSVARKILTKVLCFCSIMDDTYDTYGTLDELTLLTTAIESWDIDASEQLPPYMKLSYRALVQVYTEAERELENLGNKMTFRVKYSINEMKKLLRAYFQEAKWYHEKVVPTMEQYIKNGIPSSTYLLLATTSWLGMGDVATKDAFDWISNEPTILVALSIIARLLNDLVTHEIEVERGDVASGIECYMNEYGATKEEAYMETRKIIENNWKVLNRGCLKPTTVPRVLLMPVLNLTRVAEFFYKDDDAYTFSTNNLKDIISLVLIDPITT

TPS27 = target: T6, TPS27 (Solanum lycopersicum, UniProt G5CV48); experiment: in vitro assay, GC-MS of products; settings: product alpha-farnesene
T6 construct: recombinant, E. coli pET32b or pET28a, His-tagged, purified
T6 sequence (G5CV48 1-554): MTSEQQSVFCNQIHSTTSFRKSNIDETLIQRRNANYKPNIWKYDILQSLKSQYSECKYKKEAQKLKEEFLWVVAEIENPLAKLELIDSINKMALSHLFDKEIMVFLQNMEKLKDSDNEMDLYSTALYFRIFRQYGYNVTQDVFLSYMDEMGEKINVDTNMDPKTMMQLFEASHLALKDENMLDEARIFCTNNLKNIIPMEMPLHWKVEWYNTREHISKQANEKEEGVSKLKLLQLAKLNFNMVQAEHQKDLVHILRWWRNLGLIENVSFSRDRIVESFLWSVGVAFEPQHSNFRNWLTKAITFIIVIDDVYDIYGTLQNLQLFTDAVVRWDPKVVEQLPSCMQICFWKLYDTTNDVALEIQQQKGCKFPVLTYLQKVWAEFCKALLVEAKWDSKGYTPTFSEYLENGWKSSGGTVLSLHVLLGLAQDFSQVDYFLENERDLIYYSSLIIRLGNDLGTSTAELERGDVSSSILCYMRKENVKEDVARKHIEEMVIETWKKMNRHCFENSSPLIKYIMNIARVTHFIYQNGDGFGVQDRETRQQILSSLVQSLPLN

TPS25 = target: T7, TPS25 (Solanum lycopersicum, UniProt G5CV49); experiment: in vitro assay, GC-MS of products; settings: product mostly beta-ocimene
T7 construct: recombinant, E. coli pET32b or pET28a, His-tagged, purified
T7 sequence (G5CV49 1-576): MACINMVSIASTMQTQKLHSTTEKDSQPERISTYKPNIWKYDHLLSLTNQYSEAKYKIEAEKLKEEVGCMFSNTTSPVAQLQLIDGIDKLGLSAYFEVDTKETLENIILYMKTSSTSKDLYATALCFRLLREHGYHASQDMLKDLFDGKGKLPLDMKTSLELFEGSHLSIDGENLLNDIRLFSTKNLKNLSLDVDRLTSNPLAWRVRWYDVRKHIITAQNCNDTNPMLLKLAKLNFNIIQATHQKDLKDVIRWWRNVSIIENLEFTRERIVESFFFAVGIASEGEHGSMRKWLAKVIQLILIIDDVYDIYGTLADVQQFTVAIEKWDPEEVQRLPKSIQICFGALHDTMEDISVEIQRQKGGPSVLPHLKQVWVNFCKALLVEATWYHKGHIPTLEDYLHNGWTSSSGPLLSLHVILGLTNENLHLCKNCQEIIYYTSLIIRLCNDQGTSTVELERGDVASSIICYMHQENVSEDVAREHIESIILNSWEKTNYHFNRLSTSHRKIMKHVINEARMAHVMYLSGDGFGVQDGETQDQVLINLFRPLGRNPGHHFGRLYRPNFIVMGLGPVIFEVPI

TPS33 = target: T8, TPS33 (Solanum lycopersicum, UniProt G5CV44); experiment: in vitro assay, GC-MS of products; settings: several sesquiterpene products
T8 construct: recombinant, E. coli pET32b or pET28a, His-tagged, purified
T8 sequence (G5CV44 1-552): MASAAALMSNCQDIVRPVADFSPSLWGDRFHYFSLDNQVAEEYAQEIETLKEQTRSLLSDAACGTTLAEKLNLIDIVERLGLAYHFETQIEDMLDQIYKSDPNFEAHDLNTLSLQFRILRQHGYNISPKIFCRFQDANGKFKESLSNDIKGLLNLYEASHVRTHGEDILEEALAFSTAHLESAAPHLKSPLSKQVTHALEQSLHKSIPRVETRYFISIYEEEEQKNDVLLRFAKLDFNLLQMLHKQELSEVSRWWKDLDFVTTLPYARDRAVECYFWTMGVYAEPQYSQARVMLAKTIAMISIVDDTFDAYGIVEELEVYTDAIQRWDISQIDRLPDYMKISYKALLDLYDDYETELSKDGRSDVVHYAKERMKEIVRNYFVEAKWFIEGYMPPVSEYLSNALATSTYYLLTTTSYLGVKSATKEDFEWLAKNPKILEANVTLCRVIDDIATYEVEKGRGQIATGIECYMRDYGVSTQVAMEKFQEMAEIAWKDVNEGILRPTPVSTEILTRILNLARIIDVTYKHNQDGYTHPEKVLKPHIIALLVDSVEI

TPS35 = target: T9, TPS35 (Solanum lycopersicum, UniProt G5CV43); experiment: in vitro assay, GC-MS of products; settings: product predominantly Z,Z-farnesol
T9 construct: recombinant, E. coli pET32b or pET28a, His-tagged, purified
T9 sequence (G5CV43 1-556): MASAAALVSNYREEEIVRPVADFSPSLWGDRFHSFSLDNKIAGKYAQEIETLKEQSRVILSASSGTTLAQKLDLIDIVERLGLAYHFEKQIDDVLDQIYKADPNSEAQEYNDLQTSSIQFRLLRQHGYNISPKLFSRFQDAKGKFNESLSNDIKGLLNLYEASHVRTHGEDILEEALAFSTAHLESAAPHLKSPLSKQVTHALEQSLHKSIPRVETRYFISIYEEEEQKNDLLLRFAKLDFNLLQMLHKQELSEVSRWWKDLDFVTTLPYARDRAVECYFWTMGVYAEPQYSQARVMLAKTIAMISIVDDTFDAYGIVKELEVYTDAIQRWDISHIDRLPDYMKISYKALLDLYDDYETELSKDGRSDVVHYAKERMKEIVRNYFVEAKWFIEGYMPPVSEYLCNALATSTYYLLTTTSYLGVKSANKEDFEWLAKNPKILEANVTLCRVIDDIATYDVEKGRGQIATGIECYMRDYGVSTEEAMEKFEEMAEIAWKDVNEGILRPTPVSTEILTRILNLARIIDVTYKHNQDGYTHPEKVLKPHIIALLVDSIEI

TPS36 = target: T10, TPS36 (Solanum lycopersicum, UniProt G5CV42); experiment: in vitro assay, GC-MS of products; settings: product mostly cis-muurola-3,5-diene
T10 construct: recombinant, E. coli pET32b or pET28a, His-tagged, purified, putative transit peptide removed (mitochondrial enzyme)

TPS28 = target: T11, TPS28 (Solanum lycopersicum, UniProt G5CV47); experiment: in vitro assay, GC-MS of products; settings: product unidentified sesquiterpene
T11 construct: recombinant, E. coli pET32b or pET28a, His-tagged, purified
T11 sequence (G5CV47 1-554): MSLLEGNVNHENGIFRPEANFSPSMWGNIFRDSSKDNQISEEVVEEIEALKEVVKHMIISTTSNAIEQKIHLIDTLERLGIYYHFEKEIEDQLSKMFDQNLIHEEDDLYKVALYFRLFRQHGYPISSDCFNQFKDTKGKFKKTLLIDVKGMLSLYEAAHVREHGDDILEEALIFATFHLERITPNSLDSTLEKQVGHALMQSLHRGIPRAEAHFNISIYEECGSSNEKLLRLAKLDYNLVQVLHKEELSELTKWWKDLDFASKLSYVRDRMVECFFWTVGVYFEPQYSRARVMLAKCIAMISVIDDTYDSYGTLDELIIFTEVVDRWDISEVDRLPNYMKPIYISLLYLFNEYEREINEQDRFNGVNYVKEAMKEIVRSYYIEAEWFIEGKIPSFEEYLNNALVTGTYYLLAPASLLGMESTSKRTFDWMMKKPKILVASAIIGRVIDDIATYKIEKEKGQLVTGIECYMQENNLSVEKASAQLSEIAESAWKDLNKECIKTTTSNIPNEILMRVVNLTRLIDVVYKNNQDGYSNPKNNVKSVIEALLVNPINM

T2 sequence (Q1A7S9 57-363): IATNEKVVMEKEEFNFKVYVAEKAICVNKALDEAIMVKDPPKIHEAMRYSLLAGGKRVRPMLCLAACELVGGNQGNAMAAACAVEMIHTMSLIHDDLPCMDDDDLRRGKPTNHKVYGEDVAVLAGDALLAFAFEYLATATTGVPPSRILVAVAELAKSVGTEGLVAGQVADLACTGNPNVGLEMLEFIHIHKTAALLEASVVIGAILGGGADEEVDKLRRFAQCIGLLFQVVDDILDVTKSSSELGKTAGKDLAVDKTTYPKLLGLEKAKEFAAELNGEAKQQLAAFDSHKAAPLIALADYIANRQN
T10 sequence (G5CV42 entry or part of it): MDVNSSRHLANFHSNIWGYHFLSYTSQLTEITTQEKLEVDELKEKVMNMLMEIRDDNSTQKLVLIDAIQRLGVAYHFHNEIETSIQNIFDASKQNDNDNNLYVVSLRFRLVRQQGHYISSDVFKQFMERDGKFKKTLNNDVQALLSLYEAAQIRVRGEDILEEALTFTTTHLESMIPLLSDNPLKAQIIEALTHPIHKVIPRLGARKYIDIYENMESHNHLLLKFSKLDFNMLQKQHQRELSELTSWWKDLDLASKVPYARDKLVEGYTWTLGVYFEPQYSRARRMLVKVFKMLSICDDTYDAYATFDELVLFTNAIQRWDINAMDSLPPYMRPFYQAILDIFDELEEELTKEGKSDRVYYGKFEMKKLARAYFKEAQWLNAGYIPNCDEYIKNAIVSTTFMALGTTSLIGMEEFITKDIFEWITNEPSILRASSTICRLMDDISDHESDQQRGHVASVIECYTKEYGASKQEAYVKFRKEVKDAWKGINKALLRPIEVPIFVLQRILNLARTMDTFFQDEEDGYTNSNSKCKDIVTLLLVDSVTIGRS
T1 sequence (Q1A7T0 60-365): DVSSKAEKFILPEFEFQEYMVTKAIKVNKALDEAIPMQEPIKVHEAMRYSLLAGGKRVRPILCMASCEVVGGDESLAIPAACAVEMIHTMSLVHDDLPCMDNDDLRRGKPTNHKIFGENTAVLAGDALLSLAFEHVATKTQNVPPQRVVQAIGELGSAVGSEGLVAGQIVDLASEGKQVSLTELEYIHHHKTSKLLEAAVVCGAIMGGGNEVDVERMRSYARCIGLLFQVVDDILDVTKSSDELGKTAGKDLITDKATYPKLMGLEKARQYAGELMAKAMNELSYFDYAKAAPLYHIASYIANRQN

Question: For `CC(C)=CCOP(=O)(O)OP(=O)(O)O` [DMAPP], which “in vitro prenyltransferase assay, products hydrolysed, GC-MS” value (GGPPS1) is on record?
Answer: affinity-purified His-tagged recombinant proteins were incubated with IPP and DMAPP

Question: And the “in vitro prenyltransferase assay, products hydrolysed, GC-MS” value (GGPPS2)?
Answer: affinity-purified His-tagged recombinant proteins were incubated with IPP and DMAPP

Question: What about the “in vitro assay, headspace SPME GC-MS” value (TPS47) of the same compound?
Answer: When tested in vitro, TPS47 catalysed the formation of isoprene from DMAPP

Question: Which results are given for `CC(C)=CCC/C(C)=C/CC/C(C)=C/COP(=O)(O)OP(=O)(O)O` [E,E-FPP]?
Answer: in vitro assay, GC-MS of products (TPS52; product mostly E-nerolidol): catalysed the formation of mostly E-nerolidol from E,E-FPP; in vitro assay, GC-MS of products (TPS51; product mostly E-nerolidol): catalysed the formation of mostly E-nerolidol from E,E-FPP; in vitro assay, GC-MS of products (TPS27): TPS27 had activity only with E,E-FPP to form α-farnesene

Question: For `CC(C)=CCC/C(C)=C/COP(=O)(O)OP(=O)(O)O` [GPP], which “in vitro assay, GC-MS of products” value (TPS25) is on record?
Answer: TPS25 had activity only with GPP as the substrate, producing mostly β-ocimene

Question: What does the source list for `CC(C)=CCC/C(C)=C\CC/C(C)=C\COP(=O)(O)OP(=O)(O)O` [Z,Z-FPP]?
Answer: in vitro assay, GC-MS of products (TPS52; several sesquiterpene products): α-bisabolene, β-bisabolene and Z-β-farnesene) from Z,Z-FPP; in vitro assay, GC-MS of products (TPS33): When assayed with Z,Z-FPP, TPS33 made several sesquiterpenes; in vitro assay, GC-MS of products (TPS35): while TPS35 made predominantly Z,Z-farnesol; in vitro assay, GC-MS of products (TPS36): TPS36 only had activity using Z,Z-FPP and produced mostly cis-muurola-3,5-diene; in vitro assay, GC-MS of products (TPS28): TPS28 and TPS48 also catalysed the formation of a major sesquiterpene from Z,Z-FPP; in vitro assay, GC-MS of products (TPS51; several sesquiterpene products): α-bisabolene, β-bisabolene and Z-β-farnesene) from Z,Z-FPP
